Assay results taken from patent publication US11478558B2, “Prostate-specific membrane antigen targeted high-affinity agents for endoradiotherapy of prostate cancer” (The Johns Hopkins University, priority 2017, dated 2022).

What was measured:
[1] = system: PSMA(+) PC3 PIP and PSMA(−) PC3 flu tumor xenografts; experiment: Biodistribution of 177Lu compounds (Example 5)
PSMA+ PC3 PIP tumors = experiment: Radiopharmaceutical therapy in PC3 PIP flank tumor growth delay model; assay type: in vivo, NOD/SCID mice; settings: for Median survival After 8 weeks post-treatment / Tumors above stated relative tumor growth after week 8 post-treatment (Vt/V0) / Mouse death (number of mice): 111 MBq; for Mouse death (number of mice): up to week 8 post-treatment; for Average final body weight: single i.v. dose 111 MBq (3 mCi)
Procedure: (§1) A pilot treatment study using NOD/SCID mice (n=10 per group) bearing PSMA+ PC3 PIP tumors with a single intravenous dose of 111 MBq (3 mCi) of agents ^177Lu-PSMA-617, ^177Lu-1, ^177Lu-3 and ^177Lu-5 and the control group (with saline treatment) were performed (Table 8). Volume of the all control group mice reached >5-fold of their initial tumor volume within 14 days. Mouse euthanized for treated group within 4 weeks of post-injection was mainly due to sudden body weight loss and not related to tumor growth. […] The difference among treatment groups was statistically significant (P=0.002) by the log-rank test compared to the untreated group. […] After 8-weeks, three mice from each treated group were used for detailed blood analysis and necropsy study. All animals underwent radiotherapy study had normal creatinine (0.3-0.4 mg/dL) and blood urea nitrogen levels. […] Additionally, a significant lowering of platelet for all three treated mice from ^177Lu-PSMA-617 compared control group and other treated groups.
Median survival for the ^177Lu-PSMA-617 was 133 days vs. 234 days for ^177Lu-1.
The remaining treated mice survived tumor-free for 10 months and were evaluated for toxicity.
(§2) Antitumor efficacy studies were performed in PC3 PIP flank tumor growth delay model to evaluate the therapeutic efficacy of a single dose intravenous injection of ^177Lu-L1, ^177Lu-L3, ^177Lu-L5 and ^177Lu-PSMA-617 vs. saline. This was a head-to-head comparison study and same batch of tumor-bearing mice and radioactivity. The study was commenced 14-18 days post-inoculation of the xenografts, when all the mice had tumor volume of about ˜60-85 mm^3 (Table 8). All the living mice were monitored for 8 weeks to monitor the growth delay. Mice body weight and tumor volume were monitored every 3 days throughout the experiment. Endpoint criteria defined by the institute ACUC was weight loss≥15%, a tumor volume>1800 mm^3, active ulceration of the tumor or abnormal behavior indicating pain or unease. After 8-weeks, three mice from each group were submitted for detail necropsy and blood analysis. Mice group treated with ^177Lu-1 and ^177Lu-PSMA-617 were continued to monitor until the endpoint. These definitions were also used for Kaplan-Meier analysis. The probability of reaching 5 times the initial tumor volume was characterized using Kaplan-Meier curves, and comparison was performed using the log-rank test. The formula used for calculation of tumor volume was V=width^2×length/2. Toxicity of the ^177Lu-treatment groups after 8-weeks and in healthy CD-1 (n=3) mice treated with 111 MBq was evaluated by pathologic examination at the Johns Hopkins Pathology Core facility with serum metabolic panel, blood counts, and full necropsy including detailed histopathology of kidneys, salivary glands and lacrimal glands.

PSMA(−) PC3 flu cells = experiment: Cell uptake in PSMA(−) PC3 flu cells; assay type: cell-based, human
PSMA(+) PC3 PIP cells = experiment: Cell uptake, cell surface binding and internalization in PSMA(+) PC3 PIP cells; assay type: cell-based, human; settings: for Blockade PC3 PIP: ZJ43 10 μM; for total uptake within the PSMA(+) PC3 PIP cells: 1 h to 24 h
[2] = Blood analysis and necropsy after radiotherapy; assay type: in vivo, NOD/SCID mice
Procedure: as §1
Significant and concerning changes were identified in testes, and lacrimal grands primarily (FIG. 25) for all treated groups. […] Parotid glands, usually adjacent to exorbital lacrimal gland, are conspicuously spared and there were mild changes in the group treated ^177Lu-PSMA-617. […] T lymphoblastic lymphoma is accelerated by irradiation and some carcinogens, and is associated with interactions of endogenous retroviruses/retroelements in NOD/SCID mouse strains. […] The cells are large up to 25 μm, with very large nuclei (for a mouse) usually 2-3 nucleoli, and a high mitotic rate. Testis and lacrimal gland degenerative changes indicate that this animal did receive a treatment similar to other treated mice.
as §2

[3] = 111 MBq (3 mCi), after eight weeks, n=3

| Compound | Median survival After 8 weeks post-treatment (PSMA+ PC3 PIP tumors) | Tumors above stated relative tumor growth after week 8 post-treatment (Vt/V0) (PSMA+ PC3 PIP tumors) | Mouse death (number of mice) (PSMA+ PC3 PIP tumors) | Average final body weight (PSMA+ PC3 PIP tumors) [gram] | Cell uptake PC3 flu (PSMA(−) PC3 flu cells; 1 h) | Cell uptake PC3 flu (PSMA(−) PC3 flu cells; 2 h) | Cell uptake PC3 flu (PSMA(−) PC3 flu cells; 4 h) | Cell uptake PC3 flu (PSMA(−) PC3 flu cells; 24 h) | Cell uptake PC3 PIP (PSMA(+) PC3 PIP cells; 1 h) | PC3 PIP cell Int (internalization) (PSMA(+) PC3 PIP cells; 1 h) | Blockade PC3 PIP (PSMA(+) PC3 PIP cells; 1 h) | total uptake within the PSMA(+) PC3 PIP cells (PSMA(+) PC3 PIP cells) | Cell uptake PC3 PIP (PSMA(+) PC3 PIP cells; 2 h) | PC3 PIP, line without name (position of cell internalization) (PSMA(+) PC3 PIP cells; 2 h) | Cell uptake PC3 PIP (PSMA(+) PC3 PIP cells; 4 h) | PC3 PIP cell int (internalization) (PSMA(+) PC3 PIP cells; 4 h) | Cell uptake PC3 PIP (PSMA(+) PC3 PIP cells; 24 h) | PC3 PIP cell int (internalization) (PSMA(+) PC3 PIP cells; 24 h) | other results |
| --- | --- | --- | --- | --- | --- | --- | --- | --- | --- | --- | --- | --- | --- | --- | --- | --- | --- | --- | --- |
| O=C([O-])CN1CCN(CC(=O)[O-])CCN(CC(=O)N[C@H](CCCCNC(=O)CCCc2ccc(I)cc2)C(=O)N[C@@H](CCCCNC(=O)CCCCCCC(=O)NCCCC[C@H](NC(=O)N[C@@H](CCC(=O)O)C(=O)O)C(=O)O)C(=O)O)CCN(CC(=O)[O-])CC1.[177Lu+3] [^177Lu-14] |  |  |  |  |  |  |  |  |  |  |  |  |  |  |  |  |  |  | Kidney uptake ([1]; 48 h): 17.47±4.18 % ID/g; blood uptake ([1]; 48 h): 2.48±0.44 % ID/g; initial kidney uptake ([1]; time not given): 49.49±19.55 % ID/g; fold clearance of kidney activity ([1]; to 48 h): ~3 fold |
| O=C([O-])CN1CCN(CC(=O)[O-])CCN(CC(=O)NCc2ccc(C(=O)NCCCCCC(=O)N(CCCC[C@H](NC(=O)N[C@@H](CCC(=O)O)C(=O)O)C(=O)O)Cc3ccc(Br)cc3)cc2)CCN(CC(=O)[O-])CC1.[177Lu+3] [^177Lu-L3] | Not reached | Two tumor > 4 | Mouse death 3 | 25.8 ± 2.6 | 0.1 ± 0.0 % incubated dose per 1 x 10^6 cells | 0.1 ± 0.0 % incubated dose per 1 x 10^6 cells | 0.1 ± 0.1 % incubated dose per 1 x 10^6 cells | 0.1 ± 0.0 % incubated dose per 1 x 10^6 cells | 27.0 ± 1.3 % incubated dose per 1 x 10^6 cells | 21.4 ± 1.4 % incubated dose per 1 x 10^6 cells | 0.1 ± 0.0 % incubated dose per 1 x 10^6 cells | ~30 % of the incubated dose | 36.5 ± 0.3 % incubated dose per 1 x 10^6 cells | 23.7 ± 0.2 % incubated dose per 1 x 10^6 cells | 32.6 ± 8.5 % incubated dose per 1 x 10^6 cells | 24.9 ± 3.4 % incubated dose per 1 x 10^6 cells | 45.2 ± 1.2 % incubated dose per 1 x 10^6 cells | 30.0 ± 0.7 % incubated dose per 1 x 10^6 cells |  |
| O=C([O-])CN1CCN(CC(=O)[O-])CCN(CC(=O)NCc2ccc(C(=O)NCCCCNC(=O)CCCCCCC(=O)N(CCCC[C@H](NC(=O)N[C@@H](CCC(=O)O)C(=O)O)C(=O)O)Cc3ccc(Br)cc3)cc2)CCN(CC(=O)[O-])CC1.[177Lu+3] [^177Lu-L5] | Not reached | one tumor > 5 | Mouse death 3 | 27.5 ± 1.9 | 0.2 ± 0.1 % incubated dose per 1 x 10^6 cells | 0.0 ± 0.0 % incubated dose per 1 x 10^6 cells | 0.1 ± 0.0 % incubated dose per 1 x 10^6 cells | 0.1 ± 0.0 % incubated dose per 1 x 10^6 cells | 26.6 ± 0.6 % incubated dose per 1 x 10^6 cells | 24.1 ± 0.5 % incubated dose per 1 x 10^6 cells | 0.0 ± 0.0 % incubated dose per 1 x 10^6 cells | ~30 % of the incubated dose | 29.23 ± 0.8 % incubated dose per 1 x 10^6 cells | 25.0 ± 0.9 % incubated dose per 1 x 10^6 cells | 34.4 ± 1.2 % incubated dose per 1 x 10^6 cells | 26.1 ± 1.0 % incubated dose per 1 x 10^6 cells | 49.8 ± 1.4 % incubated dose per 1 x 10^6 cells | 27.9 ± 0.8 % incubated dose per 1 x 10^6 cells | PSMA(+) PC3 PIP tumor uptake ([1]; 3 h post-injection): 56.3±18.3 % ID/g; Albumin [2, 3]: 3 ± 0.4 g/dL; Blood urea nitrogen [2, 3]: 22.7 ± 3.2 mg/dL; Hematocrit [2, 3]: 49.7 ± 2.4%; Hemoglobin [2, 3]: 14.3 ± 1.0 g/dL; Lymphocytes [2, 3]: 0.4 ± 0.1 K/μL; Mean Corpuscular Value(MCV) [2, 3]: 54.1 ± 1.4 fL; Neutrophils [2, 3]: 2.0 ± 1.8 K/μL; Platelets [2, 3]: 1415.3 ± 88.5 K/μL; Red blood cells [2, 3]: 9.2 ± 0.7 M/μL; Total protein [2, 3]: 5.9 ± 0.6 g/dL; White blood cells [2, 3]: 2.9 ± 1.8 K/μL; H&E pathology of testis ([2]; 111 MBq, after 8 weeks): most significant changes in testis |
| O=C([O-])CN1CCN(CC(=O)[O-])CCN(CC(=O)O)C(Cc2ccc(NC(=S)NCCCCC(=O)NCCCC[C@H](NC(=O)N[C@@H](CCC(=O)O)C(=O)O)C(=O)O)cc2)CN(CC(=O)[O-])CC1.[177Lu+3] (stereo partly shown) [^177Lu-L7] |  |  |  |  |  |  |  |  |  |  |  |  |  |  |  |  |  |  | PSMA(+) PC3 PIP tumor uptake ([1]; 2 h): 25.4±7.2 % ID/g; PSMA(+) PC3 PIP tumor uptake ([1]; 24 h post-injection): 7.0±1.5 % ID/g; PSMA(+) PC3 PIP tumor uptake ([1]; 48 h): 7.0±3.3 % ID/g; PSMA(+) PC3 PIP tumor uptake ([1]; fourth time point, time not given): 2.3±0.0 % ID/g |
| O=C([O-])CN1CCN(CC(=O)[O-])CCN(CC(=O)NCC2CCC(C(=O)N(CCCCC(NC(=O)NC(CCC(=O)O)C(=O)O)C(=O)O)Cc3ccc(Br)cc3)CC2)CCN(CC(=O)[O-])CC1.[177Lu+3] (stereo not shown) [^177Lu-L11] |  |  |  |  |  |  |  |  |  |  |  |  |  |  |  |  |  |  | fold lower uptake compared to 177Lu-L1 (PSMA(+) PC3 PIP cells): > 1.5 fold |
